Data reported in patent US12552753B2, “Methods and compositions for targeting Tregs using CCR8 inhibitors” (Nanjing Immunophage Biomedical Co., Ltd., priority 2020, dated 2026).
Counter-ions that a name gives are not always drawn.

Biological target: CCR8 (Homo sapiens, UniProt P51685)
Assay: Tango assay (Tango-CCR8-Gal4-CHO-K1 cells, CCL1-stimulated, ONE-Glo luminescence)
Details: Tango Assay IC50, Inhibition of CCR8 Tango cell in vitro

Chain of CCR8 (P51685 whole entry, the tested form may be a part): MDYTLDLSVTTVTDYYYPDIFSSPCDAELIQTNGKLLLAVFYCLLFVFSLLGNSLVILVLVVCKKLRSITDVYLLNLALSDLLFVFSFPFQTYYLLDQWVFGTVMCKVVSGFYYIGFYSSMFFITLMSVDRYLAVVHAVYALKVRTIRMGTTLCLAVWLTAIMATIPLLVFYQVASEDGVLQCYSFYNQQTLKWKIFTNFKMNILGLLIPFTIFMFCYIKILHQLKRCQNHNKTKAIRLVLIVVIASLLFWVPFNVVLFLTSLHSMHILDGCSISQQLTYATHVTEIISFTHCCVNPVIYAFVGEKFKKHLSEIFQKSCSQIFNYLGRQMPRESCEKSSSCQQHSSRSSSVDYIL

SMILES	IC50
Cc1cc(S(=O)(=O)N[C@H](C)C2CCN(C)CC2)ccc1NC(=O)c1cccc2c1CCC2 [Compound 296, (R)-N-(2-methyl-4-(N-(1-(1-methylpiperidin-4-yl)ethyl)sulfamoyl)phenyl)-2,3-dihydro-1H-indene-4-carboxamide]	0.002 µM
CN1CCN(C(=O)N2CCC(NS(=O)(=O)c3ccc(-c4nc5ccccc5[nH]4)cc3)CC2)CC1 [Compound 103, 4-(1H-benzo[d]imidazol-2-yl)-N-(1-(4-methylpiperazine-1-carbonyl)piperidin-4-yl)benzenesulfonamide]	0.31 µM
Cc1ccccc1C(=O)Nc1ccc(S(=O)(=O)NC2CCC23CCN(C(=O)OC(C)(C)C)CC3)c2ccccc12 (centres unmarked) [Compound 89, tert-butyl 1-(4-(2-methylbenzamido)naph-thalene-1-sulfonamido)-7-azaspiro[3.5]nonane-7-carboxylate]	0.62 µM
CC(NS(=O)(=O)c1ccc2c(c1)CCC2NC(=O)c1ccccc1)C1CCCCC1 (centres unmarked) [Compound 88, N-(5-(N-(1-cyclohexylethyl)sulfam-oyl)-2,3-dihydro-1H-inden-1-yl)benzamide]	1.1 µM
Cc1ccccc1C(=O)Nc1ccc(S(=O)(=O)Nc2ccc3c(c2)CCN(C(=O)CN(C)C)C3)c2ccccc12 [Compound 42, N-(4-(N-(2-(2-(dimethylamino)acetyl)-1,2,3,4-tetrahydroisoquinolin-6-yl)sulfamoyl)naphthalen-1-yl)-2-methylbenzamide]	> 10 µM
Cc1ccccc1C(=O)Nc1ccc(S(=O)(=O)NC(C)C2CCN(C(=O)OC(C)(C)C)C2)c2ccccc12 (centres unmarked) [Compound 65, tert-butyl 3-(1-(4-(2-methylbenzamido)naph-thalene-1-sulfonamido)ethyl)pyr-rolidine-1-carboxylate]	1.1 µM
CCCC(=O)N1CCCC(CNS(=O)(=O)c2ccc(NC(=O)c3ccccc3C)c3ccccc23)C1 (centres unmarked) [Compound 14, N-(4-(N-((1-butyrylpiperidine-3-yl)methyl)sulfamoyl)naphthalen-1-yl)-2-methylbenzamide]	> 10 µM
CCCN1CCN(c2cc(NS(=O)(=O)c3ccc(NC(=O)c4ccccc4C)c4ccccc34)ccc2C(=O)O)CC1 [Compound 91, 4-(4-(2-methylbenzamido)naph-thalene-1-sulfonamido)-2-(4-propylpiperazin-1-yl)benzoic acid]	> 10 µM
Cc1c(C(=O)O)cccc1S(=O)(=O)NC(C)C1CC2CCC1CC2 (centres unmarked) [Compound 142, 3-(N-(1-(bicyclo[2.2.2]octan-2-yl)ethyl)sulfamoyl)-2-methylbenzoic acid]	> 10 µM
Cc1cc(S(=O)(=O)N[C@H](C)C2CCN(C(=O)OC(C)(C)C)CC2)c(F)cc1NC(=O)c1ccccc1C [Compound 174, (R)-tert-butyl 4-(1-(2-fluoro-5-methyl-4-(2-methylbenzamido)phen-ylsulfonamido)ethyl)pi-peridine-1-carboxylate]	0.914 µM

Further lines, results first:

IC50	SMILES
0.012 µM	Cc1cc(S(=O)(=O)N[C@H](C)C2CCNCC2)c(Cl)cc1NC(=O)c1ccccc1C [Compound 169A, (R)-N-(5-chloro-2-methyl-4-(N-(1-(piperidin-4-yl)ethyl)sulfamoyl)phen-yl)-2-methylbenzamide hydrochloride]
> 10 µM	Cc1ccccc1C(=O)Nc1ccc(S(=O)(=O)NC(C)C2CCCCN2)c2ccccc12 (centres unmarked) [Compound 69A, 2-methyl-N-(4-(N-(1-(piperidin-2-yl)ethyl)sulfamoyl)naph-thalen-1-yl)benzamide]
0.025 µM	Cc1cc(S(=O)(=O)NC(C2CCNCC2)C2CC2)ccc1NC(=O)c1ccccc1C (centres unmarked) [Compound 225A, N-(4-(N-(cyclopropyl (piperidin-4-yl)methyl)sulfamoyl)-2-methylphenyl)-2-methylbenzamide]
0.058 µM	Cc1ccccc1C(=O)Nc1ccc(S(=O)(=O)N[C@H](C)C2CCNCC2)cc1F [Compound 190A, (R)-N-(2-fluoro-4-(N-(1-(piperidin-4-yl)ethyl)sulfamoyl)phen-yl)-2-methylbenzmaide hydrochloride]
